Measured values published in patent US6391914B1, “Optically active aminopentane derivatives” (Fujimoto Brothers Co., Ltd., priority 1998, dated 2002).
Where a name gives a salt, the structure may show the parent alone.

How the values were obtained:
[1] = tested on: isolated rat brain stem (electric-stimulated); assay: Biogenic amines released from the rat brain stem by electrostimulation; settings: for Minimum dose causing to release noradrenaline from electric-stimulated brain stem: electrostimulation 3 Hz, 1 ms, 60 V; for Minimum dose causing to release serotonin from electric-stimulated brain stem / Minimum dose causing to release dopamine from electric-stimulated brain stem: electrostimulation
[2] = tested on: brain tissues (striatum, substantia nigra, tuberculum olfactorium, locus coeruleus and raphe); assay: Biogenic amines released from brain tissue after s.c. administration; format: in vivo, Wistar rats
Experimental: The method described in Life Sci., 56, 611-620 (1995) was used. After Wistar rats were decapitated, appropriate brain tissues (striatum, substantia nigra, tuberculum olfactorium, locus coeruleus and raphe) were isolated quickly and soaked in oxygenated (95% O2 and 5% CO2) Krebs' solution at 37° C. The composition of Krebs' solution (mmol/L) was as follows: NaCl 111, KCl 4.7, CaCl2 2.5, MgSO4 1.64, NaHCO3 25, KH2PO4 1.2, glucose 12 mg/L ascorbic acid and 20 mg/l EDTA-2Na. The preparations, submerged in one organ bath, were as follows: 1) four pieces of striatum (each halved), 2) four pieces of substantia nigra, 3) four pieces of tuberculum olfactorium, 4) eight pieces of locus coeruleus, 5) eight pieces of raphe. After incubating the tissue for 20 min, the Krebs' solution was exchanged. After the tissue was submerged for 20 min in Krebs' solution containing the compounds of the invention, the biogenic amine released during this period was quantified. The compounds of the invention, the (+)-isomer, the racemic compound and control compound, were respectively dissolved in saline, and subcutaneously administered 30 min before dissection of the brain samples. In the case of noradrenaline and dopamine, samples were purified on microcolumns (BDH Chemicals Ltd.) filled with 60 mg of alumina according to the method described in J. Pharmacol. Exp. Ther., 138, 360-372 (1962). In the case of serotonin, samples were purified on 15 mg Sephadex G-10 microcolumns (Pharmacia). Dopamine, noradrenaline and serotonin were quantified by high performance liquid chromatography (Waters 746 data module) with electrochemical detection (Waters 460 electrochemical detector). Waters Resolve 5μ Spherical C18 3.9×150 mm column was used as separating column and triethylamine-phosphate buffer (pH 5.2) containing 200/mg/L octaine sulfonate sodium and 18 mg/L EDTA-2Na with 6% acetonitrile, was used as mobile phase. The amount of appropriate amine released for 20 min was noted as nmol/g tissue. The differences among means were tested using Student's t-test. Significant level was set at P<0.05.

[3] = molecular target: T1, monoamine oxidase type-B (MAO-B) (Mus musculus, UniProt Q8BW75); assay: Mice brain MAO-B inhibition (14C-phenylethylamine); format: biochemical; settings: concentration of 10^−5 mol/L
T1 construct: the pellet was resuspended in the above buffer to be enzyme solution; from tissue; host or cells: whole brain of male C57Bl/6 mice, 40,000 g pellet
T1 sequence (Q8BW75 1-520): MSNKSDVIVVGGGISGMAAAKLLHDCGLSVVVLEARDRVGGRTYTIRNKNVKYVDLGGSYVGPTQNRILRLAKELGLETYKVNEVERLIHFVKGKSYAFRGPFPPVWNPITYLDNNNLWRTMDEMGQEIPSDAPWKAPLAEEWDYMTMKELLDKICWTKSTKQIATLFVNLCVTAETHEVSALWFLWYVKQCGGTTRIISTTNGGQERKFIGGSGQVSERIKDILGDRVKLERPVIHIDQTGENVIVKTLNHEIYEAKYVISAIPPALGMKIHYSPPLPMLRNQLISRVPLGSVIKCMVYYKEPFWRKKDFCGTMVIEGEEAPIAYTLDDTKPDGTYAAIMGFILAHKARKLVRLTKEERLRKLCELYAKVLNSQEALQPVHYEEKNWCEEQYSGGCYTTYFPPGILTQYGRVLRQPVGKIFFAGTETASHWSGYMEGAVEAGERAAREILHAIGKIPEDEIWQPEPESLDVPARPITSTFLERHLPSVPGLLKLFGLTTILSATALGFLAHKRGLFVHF
Experimental: After male C57B1/6 mice were decapitated, the whole brain was isolated immediately. The brain samples were weighed, and homogenized in 0.2 mol/L potassium phosphate buffer (pH 7.5) containing 1.0% EDTA-2Na by homogenizer. After the homogenate was centrifuged at 2,000 RPM for 20 min, the supernatant was centrifuged at 18,000 RPM (40,000 g) for 30 min. The pellet was resuspended, and further centrifuged in the same manner. Thereafter, the pellet was resuspended in the above buffer to be enzyme solution. All procedure was carried out at 4° C.
^14C-Labeled substrate (^14C-phenylethylamine) and enzyme solution from mice are mixed in test tube, incubated for 30 min at 37° C., and stopped the reaction with 20 μL of 6 mol/L Hcl. The reaction product was extracted with toluene-ethylacetate (1:1), and the radioactivity was measured using scintillation counter. Then, MAO-B inhibitory activity was calculated.

| Structure (SMILES) | Minimum dose causing to release noradrenaline from electric-stimulated brain stem [1] [µg/mL] | Minimum dose causing to release serotonin from electric-stimulated brain stem [1] [µg/mL] | Minimum dose causing to release dopamine from electric-stimulated brain stem [1] [µg/mL] | Amount of dopamine released, Striatum ([2]; dose 0.0005 mg/kg s.c.) [nmol/g · tissue. 20 min.] | Amount of dopamine released, Substantia Nigraia ([2]; dose 0.0005 mg/kg s.c.) [nmol/g · tissue. 20 min.] | Amount of dopamine released, Tuberculum Olfactorium ([2]; dose 0.0005 mg/kg s.c.) [nmol/g · tissue. 20 min.] | Amount of noradrenaline released, Locus Coeruleus ([2]; dose 0.0005 mg/kg s.c.) [nmol/g · tissue. 20 min.] | Amount of serotonin released, Raphe ([2]; dose 0.0005 mg/kg s.c.) [nmol/g · tissue. 20 min.] | Amount of dopamine released, Striatum ([2]; dose 0.0025 mg/kg s.c.) [nmol/g · tissue. 20 min.] | Amount of dopamine released, Substantia Nigraia ([2]; dose 0.0025 mg/kg s.c.) [nmol/g · tissue. 20 min.] | Amount of dopamine released, Tuberculum Olfactorium ([2]; dose 0.0025 mg/kg s.c.) [nmol/g · tissue. 20 min.] | Amount of noradrenaline released, Locus Coeruleus ([2]; dose 0.0025 mg/kg s.c.) [nmol/g · tissue. 20 min.] | Amount of serotonin released, Raphe ([2]; dose 0.0025 mg/kg s.c.) [nmol/g · tissue. 20 min.] | Amount of dopamine released, Striatum ([2]; dose 0.0500 mg/kg s.c.) [nmol/g · tissue. 20 min.] | Amount of dopamine released, Substantia Nigraia ([2]; dose 0.0500 mg/kg s.c.) [nmol/g · tissue. 20 min.] | Amount of dopamine released, Tuberculum Olfactorium ([2]; dose 0.0500 mg/kg s.c.) [nmol/g · tissue. 20 min.] | Amount of noradrenaline released, Locus Coeruleus ([2]; dose 0.0500 mg/kg s.c.) [nmol/g · tissue. 20 min.] | Amount of serotonin released, Raphe ([2]; dose 0.0500 mg/kg s.c.) [nmol/g · tissue. 20 min.] | Mice brain MAO-B inhibitory activity [3] [%] | also measured |
| --- | --- | --- | --- | --- | --- | --- | --- | --- | --- | --- | --- | --- | --- | --- | --- | --- | --- | --- | --- | --- |
| CCCNC(CCC)Cc1cc2ccccc2o1.Cl (racemic) [Racemic compound, (±)-1-(benzofuran-2-yl)-2-propylaminopentane hydrochloride] | 5 | 1 |  |  |  |  |  |  |  |  |  |  |  |  |  |  |  |  |  | Amount of dopamine released, Striatum ([2]; dose 0.0100 mg/kg s.c.): 5.3 ± 0.14 nmol/g · tissue. 20 min.; Amount of dopamine released, Substantia Nigraia ([2]; dose 0.0100 mg/kg s.c.): 6.6 ± 0.04 nmol/g · tissue. 20 min.; Amount of dopamine released, Tuberculum Olfactorium ([2]; dose 0.0100 mg/kg s.c.): 6.5 ± 0.20 nmol/g · tissue. 20 min.; Amount of noradrenaline released, Locus Coeruleus ([2]; dose 0.0100 mg/kg s.c.): 4.3 ± 0.20 nmol/g · tissue. 20 min.; Amount of serotonin released, Raphe ([2]; dose 0.0100 mg/kg s.c.): 0.457 ± 0.04 nmol/g · tissue. 20 min.; inhibition at 10 µM ([3]; read-out: Mice brain MAO-B inhibitory activity): 22.9% |
| CCCNC(CCC)Cc1cc2ccccc2o1.Cl (single isomer, unassigned; (+)) [(+)-Isomer, (+)-1-(benzofuran-2-yl)-2-propylaminopentane hydrochloride] | 0.5 | 10 | 5 | 4.4 ± 0.13 | 13.8 ± 0.25 | 6.7 ± 0.06 | 10.3 ± 0.35 | 1.785 ± 0.01 | 4.4 ± 0.10 | 8.4 ± 0.14 | 4.8 ± 0.25 | 7.4 ± 0.15 | 1.138 ± 0.05 | 4.4 ± 0.17 | 7.1 ± 0.24 | 4.8 ± 0.18 | 4.4 ± 0.10 | 0.642 ± 0.02 | 1.7 | Amount of dopamine released, Striatum ([2]; dose 0.1000 mg/kg s.c.): 5.8 ± 0.21 nmol/g · tissue. 20 min.; Amount of dopamine released, Substantia Nigraia ([2]; dose 0.1000 mg/kg s.c.): 15.9 ± 0.25 nmol/g · tissue. 20 min.; Amount of dopamine released, Tuberculum Olfactorium ([2]; dose 0.1000 mg/kg s.c.): 7.3 ± 0.20 nmol/g · tissue. 20 min.; Amount of noradrenaline released, Locus Coeruleus ([2]; dose 0.1000 mg/kg s.c.): 5.6 ± 0.25 nmol/g · tissue. 20 min.; Amount of serotonin released, Raphe ([2]; dose 0.1000 mg/kg s.c.): 0.381 ± 0.01 nmol/g · tissue. 20 min. |
| CCCNC(CCC)Cc1cc2ccccc2o1 (single isomer, unassigned; (-)) [The compound of the invention, (−)-1-(benzofuran-2-yl)-2-propylaminopentane hydrochloride] | 0.01 | 0.0005 | 0.05 | 4.8 ± 0.16 | 13.8 ± 0.23 | 6.7 ± 0.08 | 15.4 ± 0.55 | 0.914 ± 0.03 | 5.7 ± 0.19 | 13.1 ± 0.21 | 6.9 ± 0.31 | 3.9 ± 0.05 | 0.421 ± 0.03 | 6.5 ± 0.09 | 10.9 ± 0.11 | 7.7 ± 0.19 | 4.3 ± 0.25 | 0.457 ± 0.01 | 4.7 | Noradrenaline, serotonin and dopamine release on electrostimulation (FIG. 1) ([1]; electrostimulated brain stem): confirmed to enhance noradrenaline, serotonin and dopamine release; Amount of dopamine released, Striatum ([2]; dose 0.0001 mg/kg s.c.): 4.7 ± 0.14 nmol/g · tissue. 20 min.; Amount of dopamine released, Substantia Nigraia ([2]; dose 0.0001 mg/kg s.c.): 14.8 ± 0.36 nmol/g · tissue. 20 min.; Amount of dopamine released, Tuberculum Olfactorium ([2]; dose 0.0001 mg/kg s.c.): 7.2 ± 0.23 nmol/g · tissue. 20 min.; Amount of noradrenaline released, Locus Coeruleus ([2]; dose 0.0001 mg/kg s.c.): 6.6 ± 0.10 nmol/g · tissue. 20 min.; Amount of serotonin released, Raphe ([2]; dose 0.0001 mg/kg s.c.): 1.040 ± 0.03 nmol/g · tissue. 20 min. |
